pEC50: −log10 of the molar value.
Target: human GLP1R (Homo sapiens (Human), UniProt P43220)
Assay: In vitro cAMP signal activation in human GLP1R stably-expressing cell line (hGLP1R-HEK293)
Format: cell-based
Settings: cAMP concentration in hGLP1R-HEK293; 100% = 1 nM human GLP-1 (7-37)
Experimental: <Test Example 1> Measurement of In Vitro cAMP Signal Activation of a Compound in Human GLP1R
A human GLP1R stably-expressing cell line (hGLP1R-HEK293) was used in the experiment. The cells were cultured in a Dulbecco's modified Eagle's medium (DMEM) containing 10% fetal bovine serum (Sigma-Aldrich), 100 units/mL penicillin G and 100 μg/mL streptomycin sulfate (Gibco), and 500 μg/mL Geneticin (Gibco), under a moist atmosphere containing 5% CO2, at 37° C.
hGLP1R-HEK293 was seeded in 96 well plates at 2.0×10^4 cells per well and cultured over night. The medium for culturing the cells was changed to 50 μL of Medium A (DMEM, 20 mM HEPES, 0.05% BSA, 0.5 mM 3-isobutyl-1-methylxanthine) the next day, and the cells were incubated at 37° C. for 30 min. Then, 50 μL of Medium B (DMEM, 20 mM HEPES, 0.05% BSA, 0.5 mM 3-isobutyl-1-methylxanthine) containing GLP-1 or the compound was added, and the cells were incubated at 37° C. for an additional 30 min. Then, 100 μL of Assay lysis buffer (Applied Bioscience) was added, and the cells were incubated at 37° C. for 30 min. The cAMP concentration was quantified using cAMP HiRange kit (Cisbio Bioassays).
By setting the cAMP concentration when the human GLP-1 (7-37) was put into action at a concentration of 1 nM to 100%, the cAMP concentration of each well was converted to a reaction rate (%).

Chain of human GLP1R (P43220 24-463): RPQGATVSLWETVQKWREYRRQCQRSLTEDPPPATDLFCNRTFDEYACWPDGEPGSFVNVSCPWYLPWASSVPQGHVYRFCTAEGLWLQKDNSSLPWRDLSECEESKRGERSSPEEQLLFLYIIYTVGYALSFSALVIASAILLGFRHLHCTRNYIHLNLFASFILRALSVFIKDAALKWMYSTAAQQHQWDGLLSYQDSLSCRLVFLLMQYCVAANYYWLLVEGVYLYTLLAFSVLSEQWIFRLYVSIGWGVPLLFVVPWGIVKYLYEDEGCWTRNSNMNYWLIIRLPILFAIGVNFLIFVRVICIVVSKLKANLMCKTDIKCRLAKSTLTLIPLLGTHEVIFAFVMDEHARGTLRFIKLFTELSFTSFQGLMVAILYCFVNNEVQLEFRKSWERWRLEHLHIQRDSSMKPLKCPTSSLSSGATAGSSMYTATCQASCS

Structure (SMILES)	pEC50
CC[C@H]1C[C@@H](c2ccc3c(c2)cc(C(=O)N2CCc4nn(-c5cc(C)c(F)c(C)c5)c(-n5ccn(-c6ccc7c(cnn7C)c6)c5=O)c4C2)n3[C@@]2(c3noc(=O)[nH]3)C[C@@H]2C)CCO1 [compound 77]	8.85
Cc1cc(-n2nc3c(c2-n2ccn(-c4ccc5c(cnn5C)c4F)c2=O)[C@H](C)N(C(=O)c2cc4cc([C@H]5CCO[C@@H](C)C5)ccc4n2[C@@]2(c4noc(=O)[nH]4)C[C@@H]2C)CC3)cc(C)c1F [Example 41, 3-[(1S,2S)-1-[2-[(4S)-2-(4-fluoro-3,5-dimethylphenyl)-3-[3-(4-fluoro-1-methylindazol-5-yl)-2-oxoimidazol-1-yl]-4-methyl-6,7-dihydro-4H-pyrazolo[4,3-c]pyridine-5-carbonyl]-5-[(2S,4S)-2-methyloxan-4-yl]indol-1-yl]-2-methylcyclopropyl]-4H-1,2,4-oxadiazol-5-one]	8.62
COCCn1ncc2cc(-n3ccn(-c4c5c(nn4-c4ccc(F)c(C)c4)CCN(C(=O)c4cc6cc(N7CCOC(C)(C)C7)ccc6n4[C@@]4(c6noc(=O)[nH]6)C[C@@H]4C)C5)c3=O)ccc21 [compound 58, 3-[(1S,2S)-1-[5-(2,2-dimethylmorpholin-4-yl)-2-[2-(4-fluoro-3-methylphenyl)-3-[3-[1-(2-methoxyethyl)indazol-5-yl]-2-oxoimidazol-1-yl]-6,7-dihydro-4H-pyrazolo[4,3-c]pyridine-5-carbonyl]indol-1-yl]-2-methylcyclopropyl]-4H-1,2,4-oxadiazol-5-one]	8.12
COCCn1ncc2cc(-n3ccn(-c4c5c(nn4-c4cc(C)c(F)c(C)c4)CCN(C(=O)c4cc6cc([C@H]7CCOC(C)(C)C7)ccc6n4[C@@]4(c6noc(=O)[nH]6)C[C@@H]4C)[C@H]5C)c3=O)ccc21 [Example 31, 3-[(1S,2S)-1-[5-[(4S)-2,2-dimethyloxan-4-yl]-2-[(4S)-2-(4-fluoro-3,5-dimethylphenyl)-3-[3-[1-(2-methoxyethyl)indazol-5-yl]-2-oxoimidazol-1-yl]-4-methyl-6,7-dihydro-4H-pyrazolo[4,3-c]pyridine-5-carbonyl]indol-1-yl]-2-methylcyclopropyl]-4H-1,2,4-oxadiazol-5-one]	9.13
Cc1cc(-n2nc3c(c2-n2ccn(-c4ccc5c(cnn5[C@H]5CCOC5)c4)c2=O)[C@H](C)N(C(=O)c2cc4cc(C5CCOCC5)ccc4n2[C@@]2(c4noc(=O)[nH]4)C[C@@H]2C)CC3)cc(C)c1F [Example 22, 3-[(1S,2S)-1-[2-[(4S)-2-(4-fluoro-3,5-dimethylphenyl)-4-methyl-3-[2-oxo-3-[1-[(3S)-oxolan-3-yl]indazol-5-yl]imidazol-1-yl]-6,7-dihydro-4H-pyrazolo[4,3-c]pyridine-5-carbonyl]-5-(oxan-4-yl)indol-1-yl]-2-methylcyclopropyl]-4H-1,2,4-oxadiazol-5-one]	8.64
Cc1cc(-n2nc3c(c2-n2ccn(-c4ccc5c(cnn5[C@H]5CCOC5)c4)c2=O)[C@H](C)N(C(=O)c2cc4cc(-c5ccnc(C)c5F)ccc4n2[C@@]2(c4noc(=O)[nH]4)C[C@@H]2C)CC3)cc(C)c1F [Example 14, 3-[(1S,2S)-1-[2-[(4S)-2-(4-fluoro-3,5-dimethylphenyl)-4-methyl-3-[2-oxo-3-[1-[(3S)-oxolan-3-yl]indazol-5-yl]imidazol-1-yl]-6,7-dihydro-4H-pyrazolo[4,3-c]pyridine-5-carbonyl]-5-(3-fluoro-2-methylpyridin-4-yl)indol-1-yl]-2-methylcyclopropyl]-4H-1,2,4-oxadiazol-5-one]	8.64
COCCn1ncc2cc(-n3ccn(-c4c5c(nn4-c4cc(C)c(F)c(C)c4)CCN(C(=O)c4cc6cc(C7CCOCC7)cc(F)c6n4[C@@]4(c6noc(=O)[nH]6)C[C@@H]4C)[C@H]5C)c3=O)ccc21 [compound 63, 3-[(1S,2S)-1-[7-fluoro-2-[(4S)-2-(4-fluoro-3,5-dimethylphenyl)-3-[3-[1-(2-methoxyethyl)indazol-5-yl]-2-oxoimidazol-1-yl]-4-methyl-6,7-dihydro-4H-pyrazolo[4,3-c]pyridine-5-carbonyl]-5-(oxan-4-yl)indol-1-yl]-2-methylcyclopropyl]-4H-1,2,4-oxadiazol-5-one]	8.96
Cc1cc(-n2nc3c(c2-n2ccn(-c4ccc5c(cnn5C)c4)c2=O)CN(C(=O)c2cc4cc([C@H]5CCOC(C)(C)C5)ccc4n2[C@@]2(c4noc(=O)[nH]4)C[C@@H]2C)CC3)cc(C)c1F [compound 59, 3-[(1S,2S)-1-[5-[(4S)-2,2-dimethyloxan-4-yl]-2-[2-(4-fluoro-3,5-dimethylphenyl)-3-[3-(1-methylindazol-5-yl)-2-oxoimidazol-1-yl]-6,7-dihydro-4H-pyrazolo[4,3-c]pyridine-5-carbonyl]indol-1-yl]-2-methylcyclopropyl]-4H-1,2,4-oxadiazol-5-one]	8.82
Cc1cc(-n2nc3c(c2-n2ccn(-c4ccc5c(cnn5C)c4)c2=O)[C@H](C)N(C(=O)c2cc4cc(C5CCOCC5)ccc4n2[C@@]2(c4noc(=O)[nH]4)C[C@@H]2C)[C@H](C)C3)cc(C)c1F [compound 80, 3-[(1S,2S)-1-[2-[(4S,6R)-2-(4-fluoro-3,5-dimethylphenyl)-4,6-dimethyl-3-[3-(1-methylindazol-5-yl)-2-oxoimidazol-1-yl]-6,7-dihydro-4H-pyrazolo[4,3-c]pyridine-5-carbonyl]-5-(oxan-4-yl)indol-1-yl]-2-methylcyclopropyl]-4H-1,2,4-oxadiazol-5-one]	8.62
Cc1cc(-n2nc3c(c2-n2ccn(-c4ccc5c(cnn5[C@H]5CCOC5)c4F)c2=O)[C@H](C)N(C(=O)c2cc4cc([C@H]5CCOC(C)(C)C5)ccc4n2[C@@]2(c4noc(=O)[nH]4)C[C@@H]2C)CC3)cc(C)c1F [Example 40, 3-[(1S,2S)-1-[5-[(4S)-2,2-dimethyloxan-4-yl]-2-[(4S)-2-(4-fluoro-3,5-dimethylphenyl)-3-[3-[4-fluoro-1-[(3S)-oxolan-3-yl]indazol-5-yl]-2-oxoimidazol-1-yl]-4-methyl-6,7-dihydro-4H-pyrazolo[4,3-c]pyridine-5-carbonyl]indol-1-yl]-2-methylcyclopropyl]-4H-1,2,4-oxadiazol-5-one]	8.66
Cc1cc(-n2nc3c(c2-n2ccn(-c4ccc5c(cnn5CC(F)(F)F)c4F)c2=O)[C@H](C)N(C(=O)c2cc4cc(C5CCOCC5)ccc4n2[C@@]2(c4noc(=O)[nH]4)C[C@@H]2C)CC3)cc(C)c1Cl [Example 44, 3-[(1S,2S)-1-[2-[(4S)-2-(4-chloro-3,5-dimethylphenyl)-3-[3-[4-fluoro-1-(2,2,2-trifluoroethyl)indazol-5-yl]-2-oxoimidazol-1-yl]-4-methyl-6,7-dihydro-4H-pyrazolo[4,3-c]pyridine-5-carbonyl]-5-(oxan-4-yl)indol-1-yl]-2-methylcyclopropyl]-4H-1,2,4-oxadiazol-5-one]	8.82
Cc1cc(-n2nc3c(c2-n2ccn(-c4ccc5c(cnn5C)c4)c2=O)[C@H](C)N(C(=O)c2cc4cc(-c5ccnc(N(C)C)c5C)ccc4n2[C@@]2(c4noc(=O)[nH]4)C[C@@H]2C)CC3)cc(C)c1F [Example 15, 3-[(1S,2S)-1-[5-[2-(dimethylamino)-3-methylpyridin-4-yl]-2-[(4S)-2-(4-fluoro-3,5-dimethylphenyl)-4-methyl-3-[3-(1-methylindazol-5-yl)-2-oxoimidazol-1-yl]-6,7-dihydro-4H-pyrazolo[4,3-c]pyridine-5-carbonyl]indol-1-yl]-2-methylcyclopropyl]-4H-1,2,4-oxadiazol-5-one]	8.66
Cc1cc(-n2nc3c(c2-n2ccn(-c4ccc5c(cnn5CC(C)(C)O)c4F)c2=O)[C@H](C)N(C(=O)c2cc4cc([C@H]5CCOC(C)(C)C5)ccc4n2[C@@]2(c4noc(=O)[nH]4)C[C@@H]2C)CC3)cc(C)c1F [Example 38, 3-[(1S,2S)-1-[5-[(4S)-2,2-dimethyloxan-4-yl]-2-[(4S)-2-(4-fluoro-3,5-dimethylphenyl)-3-[3-[4-fluoro-1-(2-hydroxy-2-methylpropyl)indazol-5-yl]-2-oxoimidazol-1-yl]-4-methyl-6,7-dihydro-4H-pyrazolo[4,3-c]pyridine-5-carbonyl]indol-1-yl]-2-methylcyclopropyl]-4H-1,2,4-oxadiazol-5-one]	8.77
COCCn1ncc2c(F)c(-n3ccn(-c4c5c(nn4-c4cc(C)c(F)c(C)c4)CCN(C(=O)c4cc6cc([C@H]7CCOC(C)(C)C7)ccc6n4[C@@]4(c6noc(=O)[nH]6)C[C@@H]4C)[C@H]5C)c3=O)ccc21 [Example 36, 3-[(1S,2S)-1-[5-[(4S)-2,2-dimethyloxan-4-yl]-2-[(4S)-2-(4-fluoro-3,5-dimethylphenyl)-3-[3-[4-fluoro-1-(2-methoxyethyl)indazol-5-yl]-2-oxoimidazol-1-yl]-4-methyl-6,7-dihydro-4H-pyrazolo[4,3-c]pyridine-5-carbonyl]indol-1-yl]-2-methylcyclopropyl]-4H-1,2,4-oxadiazol-5-one]	8.68

Reference: US10858356B2, “Pyrazolopyridine derivative having GLP-1 receptor agonist effect” (Chugai Seiyaku Kabushiki Kaisha, priority 2016, dated 2020)
